Test results reported in ChEMBL document CHEMBL1134446, “Polyamine analogue antidiarrheals: a structure-activity study” (J Med Chem, 2001).
Values joined by “and” are separate entries in the source; they are usually repeats but may differ in a detail not shown here. Equal entries are not always repeated.

Assays:
Canis familiaris [1] = test: MESPM/MEHSPH Distribution in liver was determined after DESPM dosing of 8.0 mg/kg/day for 4.5 days in dog(cu dose-52.4) and sacrificed at 10 days PLD(cu dose-36 mg/kg); assay type: ADME, organism-based, Canis lupus familiaris; settings: in vivo, 240 h
Canis familiaris [2] = test: putrescine Distribution in kidney was determined after DESPM dosing of 8.0 mg/kg/day for 4.5 days in dog and sacrificed at 75 days PLD(cu dose-36 mg/kg); assay type: ADME, organism-based, Canis lupus familiaris; settings: in vivo, 1800 h
Rattus norvegicus [3] = test: Percent reduction was determined by using the ratio of mean of treated animal to that of control animal at a dose of 94 mg/kg; assay type: functional
Rattus norvegicus [4] = test: Percent reduction was determined by using the ratio of mean of treated animal to that of control animal at a dose of 14.3 mg/kg; assay type: functional
Canis familiaris [5] = test: Spermidine Distribution in kidney was determined after DESPM dosing of 1.87 mg/kg/day for 28 days in dog(cu dose-52.4) and sacrificed at 10 days PLD(cu dose-52.4 mg/kg); assay type: ADME, organism-based, Canis lupus familiaris; settings: in vivo, 240 h
Canis familiaris [6] = test: MESPM/MEHSPH Distribution in kidney was determined after DESPM dosing of 8.0 mg/kg/day for 4.5 days in dog(cu dose-52.4) and sacrificed at 75 days PLD(cu dose-36 mg/kg); assay type: ADME, organism-based, Canis lupus familiaris; settings: in vivo, 1800 h
Canis familiaris [7] = test: MESPM/MEHSPH Distribution in kidney was determined after DESPM dosing of 4 mg/kg/day for 13 days in dog(cu dose-52.4) and sacrificed at 10 days PLD(cu dose-52 mg/kg); assay type: ADME, organism-based, Canis lupus familiaris; settings: in vivo, 240 h
Rattus norvegicus [8] = test: Weight loss of rat over the 6-h experimental period when a dose of 9.4 mg/kg (23.3 administered; assay type: functional
Canis familiaris [9] = test: MESPM/MEHSPH Distribution in liver was determined after DESPM dosing of 8.0 mg/kg/day for 4.5 days in dog(cu dose-52.4) and sacrificed at 75 days PLD(cu dose-36 mg/kg); assay type: ADME, organism-based, Canis lupus familiaris; settings: in vivo, 1800 h
Rattus norvegicus [10] = test: Percent reduction was determined by using the ratio of mean of treated animal to that of control animal at a dose of 47 mg/kg; assay type: functional
Canis familiaris [11] = test: Spermine Distribution in kidney was determined after DESPM dosing of 1.87 mg/kg/day for 28 days in dog(cu dose-52.4) and sacrificed at 10 days PLD(cu dose-52.4 mg/kg); assay type: ADME, organism-based, Canis lupus familiaris; settings: in vivo, 240 h
Rattus norvegicus [12] = test: Weight loss of rat over the 6-h experimental period when a dose of 0 mg/kg (0 administered; assay type: functional
Canis familiaris [13] = test: putrescine Distribution in liver was determined after DESPM dosing of 1.87 mg/kg/day for 28 days in dog(cu dose-52.4) and sacrificed at 75 days PLD(cu dose-52.4 mg/kg); assay type: ADME, organism-based, Canis lupus familiaris; settings: in vivo, 1800 h
Canis familiaris [14] = test: MESPM/MEHSPH Distribution in liver was determined after DESPM dosing of 4 mg/kg/day for 13 days in dog(cu dose-52.4) and sacrificed at 10 days PLD(cu dose-52 mg/kg); assay type: ADME, organism-based, Canis lupus familiaris; settings: in vivo, 240 h
Rattus norvegicus [15] = test: Stool output of rat over the 6-h collection period when a dose of 0 mg/kg (0 administered; assay type: functional
Canis familiaris [16] = test: putrescine Distribution in kidney was determined after DESPM dosing of 1.87 mg/kg/day for 28 days in dog and sacrificed at 10 days PLD(cu dose-52.4 mg/kg); assay type: ADME, organism-based, Canis lupus familiaris; settings: in vivo, 240 h
Canis familiaris [17] = test: putrescine Distribution in kidney was determined after DESPM dosing of 4.0 mg/kg/day for 13 days in dog and sacrificed at 10 days PLD(cu dose-52 mg/kg); assay type: ADME, organism-based, Canis lupus familiaris; settings: in vivo, 240 h
Rattus norvegicus [18] = test: Percent reduction was determined by using the ratio of mean of treated animal to that of control animal at a dose of 4.7 mg/kg; assay type: functional
Canis familiaris [19] = test: Distribution in liver was determined after DEHSPM dosing of 2.0 mg/kg/day for 29 days in dog(cu dose-52.4) and sacrificed at 10 days PLD(cu dose-58 mg/kg); assay type: ADME, organism-based, Canis lupus familiaris; settings: in vivo, 240 h
Canis familiaris [20] = test: Distribution in kidney was determined after DESPM dosing of 6.0 mg/kg/day for 4.5 days in dog(cu dose-52.4) and sacrificed at 10 days PLD(cu dose-27 mg/kg); assay type: ADME, organism-based, Canis lupus familiaris; settings: in vivo, 240 h
Canis familiaris [21] = test: Distribution in kidney was determined after DESPM dosing of 4 mg/kg/day for 13 days in dog(cu dose-52.4) and sacrificed at 75 days PLD(cu dose-52 mg/kg); assay type: ADME, organism-based, Canis lupus familiaris; settings: in vivo, 1800 h
Canis familiaris [22] = test: Distribution in liver was determined after DESPM dosing of 4 mg/kg/day for 13 days in dog(cu dose-52.4) and sacrificed at 10 days PLD(cu dose-52 mg/kg); assay type: ADME, organism-based, Canis lupus familiaris; settings: in vivo, 240 h
Canis familiaris [23] = test: Distribution in liver was determined after DESPM dosing of 1.87 mg/kg/day for 28 days in dog(cu dose-52.4) and sacrificed at 10 days PLD(cu dose-52.4 mg/kg); assay type: ADME, organism-based, Canis lupus familiaris; settings: in vivo, 240 h
Canis familiaris [24] = test: Spermine Distribution in liver was determined after DEHSPM dosing of 2.0 mg/kg/day for 29 days in dog(cu dose-52.4) and sacrificed at 10 days PLD(cu dose-58 mg/kg); assay type: ADME, organism-based, Canis lupus familiaris; settings: in vivo, 240 h

CCNCCCNCCCCNCCCNCC [BIS(ETHYL)SPERMINE]
Wet weight of tissue (Canis familiaris [1]): 21 nM/g | Wet weight of tissue (Canis familiaris [2]): 6 nM/g | Reduction (Rattus norvegicus [3]): 100% | Reduction (Rattus norvegicus [4]): 66% and 92% | Wet weight of tissue (Canis familiaris [5]): 69 nM/g | Wet weight of tissue (Canis familiaris [6]): 0 nM/g | Wet weight of tissue (Canis familiaris [7]): 7 nM/g | Weight loss (Rattus norvegicus [8]): <5.3 g | Wet weight of tissue (Canis familiaris [9]): 0 nM/g | Reduction (Rattus norvegicus [10]): 75% and 92% | Wet weight of tissue (Canis familiaris [11]): 998 nM/g | Weight loss (Rattus norvegicus [12]): 11.9 g | Wet weight of tissue (Canis familiaris [13]): 28 nM/g | Wet weight of tissue (Canis familiaris [14]): 34 nM/g | Stool output (Rattus norvegicus [15]): 7.5 g (350g of rat weight)-1 | Wet weight of tissue (Canis familiaris [16]): 0 nM/g | Wet weight of tissue (Canis familiaris [17]): 12 nM/g | Reduction (Rattus norvegicus [18]): 37% and 60%

CCNCCCCNCCCCNCCCCNCC [DIETHYLHOMOSPERMINE]
Wet weight of tissue (Canis familiaris [19]): 80 nM/g | Wet weight of tissue (Canis familiaris [20]): 44 nM/g | Wet weight of tissue (Canis familiaris [21]): 0 nM/g | Wet weight of tissue (Canis familiaris [22]): 36 nM/g | Wet weight of tissue (Canis familiaris [23]): 18 nM/g | Wet weight of tissue (Canis familiaris [24]): 108 nM/g
